Source: patent US5969017A, “Methods of treating or preventing cardiac arrhythmia” (Merck & Co., Inc., priority 1997, dated 1999)

Tested on: other cardiac K+ channels
Assay: Block of the other cardiac K+ channels (IK1, IKr and IKs, summary)
Assay type: cell-based, guinea pig
Conditions: summary of Table 2
Description: D. Measurement of IKs IKr and IK1 in Guinea Pig Ventricular Myocytes.
Guinea pig ventricular myocytes were isolated using a modification of the procedure described by Mitra et al., Am. J. Physiol. 249:H1056-60 (1985). Excised hearts were perfused through the aorta (retrograde fashion) at a rate of 10 ml/min with oxygenated, warmed (37° C.) solutions described below. The heart was initially perfused for 7 minutes with a Tyrode's solution containing, in mM: 132 NaCl, 4 KCl, 1.2 MgCl2, 10 HEPES, 5 glucose, pH=7.2. The heart was then perfused with the same nominally Ca^2+ -free solution containing 150 units/ml Type II collagenase (Worthington) and 0.5 units/ml Type XIV protease (Sigma) for 8 minutes. This perfusate was followed by a Tyrode's solution contianing 0.2 mM CaCl2 (without enzymes) for 5 minutes. The digested ventricles were cut into small pieces and gently shaken until cells were visibly dispersed. The cells were stored at room temperature until use, within 8 hours after isolation.
Microelectrode fabrication:
The suction microelectrode technique described by Giles, W. R. and Shibata, E. F., "Voltage clamp of bull-frog cardiac pacemaker cells: a quantitative analysis of potassium currents", J. Physiol. 368:265-292 (1985) was used to voltage clamp the cells. Microelectrodes were made by using a two stage puller from square bore (1.0 mm o.d.) borosilicate capillary tubing. Pipettes were filled with 0.5 M K gluconate, 25 mM KCl and 5 mM K2 ATP. The electrodes had resistances of 3 to 7 Mohm when filled with this solution. After establishing whole-cell recording mode, negative pressure was maintained on the pipette using a 1 ml gas-tight syringe attached via air tight tubing to the suction port of the microelectrode holder. This minimized dialysis of the cell with the pipette solution.
To record K^+ currents, the cells were bathed in a Ca^2+ -free Tyrode's solution containing […]. […] To record Ca^2+ currents, the cells were bathed in Tyrode's solution containing 1.8 mM Ca^2+ without nisoldipine. The cell chamber was superfused with solutions at a rate of 1-2 ml/minute, while maintaining the temperture at […]. A List EPC-7 clamp amplifier was used to voltage clamp the isolated cells. Series resistance was compensated 40-70%, and current was low-pass filtered at a cut-off frequency of 1 kHz. […] Data was analyzed as % block from control membrane currents.
Nisoldipine was prepared as a 4 mM stock solution in polyethylne glycol 200. […] At the final concentrations used, neither polyethylene glycol 200 nor dimethyl sulfoxide had any effect on any of the measured membrane currents.
Selectivity for block of cardiac K^+ channels, IK1, IKr, and IKs was determined as previously described in guinea pig ventricular myocytes (U.S. Pat. No. 5,428,031).

For CC1CCC(C(C)C)C(P(=O)(c2ccccc2)c2ccccc2)C1 (stereo not shown) [A, (2-Isopropyl-5-methylcyclohexyl)diphenylphosphine oxide], the “blockade of the other cardiac K+ channels (in words)” value (“blockade” for short) was “minimal or absent”.

With COc1ccc(-n2nc(Sc3ccc(C)cc3)c(C)c(C#N)c2=O)cc1 [D] the “blockade” value was “minimal or absent”.

For Cc1cc(C)c(CP(=O)(c2ccccc2)c2ccccc2)c(-c2ccc(F)c(C)c2)c1 [B, 2-(Diphenylphosphinylmethyl)-4'-fluoro-3,5,3'-trimethyl-biphenyl], the “blockade” value was “minimal or absent”.

In the case of COc1ccc(-n2nc(Sc3ccc(Cl)cc3)c(C)c(C#N)c2=O)cc1 [C, 6-(4-Chlorophenylthio)-2-(4-methoxyphenyl)-5-methyl-3-oxo-2,3-dihydropyridazine-4-carbonitrile], the “blockade” value is reported as “minimal or absent”.
